Measurements reported in US9365574B2, “Soluble guanylate cyclase activators” (Merck Sharp & Dohme Corp., priority 2010, dated 2016).

System: Spontaneously hypertensive rats (SHR)
Assay: Acute Efficacy in Spontaneously Hypertensive Rats (SHR), telemetry blood pressure
Assay type: in vivo, rat
Settings: single oral dose 0.1 mpk P.O.
Summary of the method: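 Male SHR with aortic telemetry catheters, 14-day recovery, conscious and freely moving; single oral gavage in 10% transcutol/20% Cremophor/70% water. BP sampled 30 s every 10 min, hourly averages minus prior-day vehicle baseline; value is maximum peak SBP decrease at stated mg/kg PO dose.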

Compound | Maximum peak decrease of systolic blood pressure (SBP) in SHR, Category
CC1(C(=O)NC2COC2)C(=O)Nc2nc(-c3nn(CCC(F)(F)C(F)(F)F)c4nc(Cl)ccc34)nc(N)c21 (centres unmarked) [Example 230, 4-amino-2-[6-chloro-1-(3,3,4,4,4-pentafluorobutyl)-1H-pyrazolo[3,4-b]pyridin-3-yl]-5-methyl-N-oxetan-3-yl-6-oxo-6,7-dihydro-5H-pyrrolo[2,3-d]pyrimidine-5-carboxamide] | A (Category A=SBP in SHRs<25 mmHg)
CC1(C(=O)NC2CC2)C(=O)Nc2nc(-c3nn(CCC(F)(F)C(F)F)c4ncccc34)nc(N)c21 (centres unmarked) [Example 237, 4-amino-N-cyclopropyl-5-methyl-6-oxo-2-[1-(3,3,4,4-tetrafluorobutyl)-1H-pyrazolo[3,4-b]pyridin-3-yl]-6,7-dihydro-5H-pyrrolo[2,3-d]pyrimidine-5-carboxamide] | B (Category B=SBP in SHRs 25-40 mmHg)

Same assay, conditions: single oral dose 0.3 mpk P.O.

Compound | Maximum peak decrease of systolic blood pressure (SBP) in SHR, Category
CC1(C(=O)NC2CC2)C(=O)Nc2nc(-c3nn(CCCC(F)(F)F)c4ncccc34)nc(N)c21 (centres unmarked) [Example 222, 4-amino-N-cyclopropyl-5-methyl-6-oxo-2-[1-(4,4,4-trifluorobutyl)-1H-pyrazolo[3,4-b]pyridin-3-yl]-6,7-dihydro-5H-pyrrolo[2,3-d]pyrimidine-5-carboxamide] | C (Category C=SBP in SHRs>40 mmHg)
CC1(C(=O)NC2CC2)C(=O)Nc2nc(-c3nn(CCC(F)(F)C(F)(F)F)c4nc(C5CC5)ccc34)nc(N)c21 (centres unmarked) [Example 223, 4-amino-N-cyclopropyl-2-[6-cyclopropyl-1-(3,3,4,4,4-pentafluorobutyl)-1H-pyrazolo[3,4-b]pyridin-3-yl]-5-methyl-6-oxo-6,7-dihydro-5H-pyrrolo[2,3-d]pyrimidine-5-carboxamide] | B (Category B=SBP in SHRs 25-40 mmHg)
CC1(c2nnc(C3CC3)o2)C(=O)Nc2nc(-c3nn(CCCC(F)(F)F)c4ncccc34)nc(N)c21 (centres unmarked) [Example 225, 4-amino-5-(5-cyclopropyl-1,3,4-oxadiazol-2-yl)-5-methyl-2-[1-(4,4,4-trifluorobutyl)-1H-pyrazolo[3,4-b]pyridin-3-yl]-5,7-dihydro-6H-pyrrolo[2,3-d]pyrimidin-6-one] | C (Category C=SBP in SHRs>40 mmHg)
CC1(C(=O)Nc2ccccn2)C(=O)Nc2nc(-c3nn(CCCC(F)(F)F)c4ncccc34)nc(N)c21 (centres unmarked) [Example 226, 4-amino-5-methyl-6-oxo-N-pyridin-2-yl-2-[1-(4,4,4-trifluorobutyl)-1H-pyrazolo[3,4-b]pyridin-3-yl]-6,7-dihydro-5H-pyrrrolo[2,3-d]pyrimidine-5-carboxamide] | B (Category B=SBP in SHRs 25-40 mmHg)
CC1(C(=O)Nc2cccnc2)C(=O)Nc2nc(-c3nn(CCCC(F)(F)F)c4ncccc34)nc(N)c21 (centres unmarked) [Example 227] | B (Category B=SBP in SHRs 25-40 mmHg)
CC1(C(N)=O)C(=O)Nc2nc(-c3nn(CCCC(F)(F)F)c4ncccc34)nc(N)c21 (centres unmarked) [Example 228, 4-amino-5-methyl-6-oxo-2-[1-(4,4,4-trifluorobutyl)-1H-pyrazolo[3,4-b]pyridin-3-yl]-6,7-dihydro-5H-pyrrolo[2,3-d]pyrimidine-5-carboxamide] | A (Category A=SBP in SHRs<25 mmHg)
CC1(C(=O)NC2COC2)C(=O)Nc2nc(-c3nn(CCC(F)(F)C(F)(F)F)c4ncccc34)nc(N)c21 (centres unmarked) [Example 231, 4-amino-5-methyl-N-oxetan-3-yl-6-oxo-2-[1-(3,3,4,4,4-pentafluorobutyl)-1H-pyrazolo[3,4-b]pyridin-3-yl]-6,7-dihydro-5H-pyrrolo[2,3-d]pyrimidine-5-carboxamide] | C (Category C=SBP in SHRs>40 mmHg)
CC1(c2ccccn2)C(=O)Nc2nc(-c3nn(CCC(F)(F)F)c4ncccc34)nc(N)c21 (centres unmarked) [Example 232, 4-amino-5-methyl-5-pyridin-2-yl-2-[1-(3,3,3-trifluoropropyl)-1H-pyrazolo[3,4-b]pyridin-3-yl]-5,7-dihydro-6H-pyrrolo[2,3-d]pyrimidin-6-one] | B (Category B=SBP in SHRs 25-40 mmHg)
CC1(C(=O)Nc2cccnc2)C(=O)Nc2nc(-c3nn(CCOC(F)(F)F)c4ncccc34)nc(N)c21 (centres unmarked) [Example 233, 4-amino-5-methyl-6-oxo-N-pyridin-3-yl-2-{1-[2-(trifluoromethoxy)ethyl]-1H-pyrazolo[3,4-b]pyridin-3-yl}-6,7-dihydro-5H-pyrrolo[2,3-d]pyrimidine-5-carboxamide] | B (Category B=SBP in SHRs 25-40 mmHg)
CC1(C(=O)Nc2cccnc2)C(=O)Nc2nc(-c3nn(CCC(F)(F)C(F)(F)F)c4ncccc34)nc(N)c21 (centres unmarked) [Example 234, 4-amino-5-methyl-6-oxo-2-[1-(3,3,4,4,4-pentafluorobutyl)-1H-pyrazolo[3,4-b]pyridin-3-yl]-N-pyridin-3-yl-6,7-dihydro-5H-pyrrolo[2,3-d]pyrimidine-5-carboxamide] | C (Category C=SBP in SHRs>40 mmHg)
CC1(C(=O)NC2CCOC2)C(=O)Nc2nc(-c3nn(CCC(F)(F)C(F)(F)F)c4ncccc34)nc(N)c21 (centres unmarked) [Example 235, 4-amino-5-methyl-6-oxo-2-[1-(3,3,4,4,4-pentafluorobutyl)-1H-pyrazolo[3,4-b]pyridin-3-yl]-N-(tetrahydrofuran-3-yl)-6,7-dihydro-5H-pyrrolo[2,3-d]pyrimidine-5-carboxamide] | B (Category B=SBP in SHRs 25-40 mmHg)
CC1(c2nncs2)C(=O)Nc2nc(-c3nn(CCCC(F)(F)F)c4ncccc34)nc(N)c21 (centres unmarked) [Example 236, 4-amino-5-methyl-5-(1,3,4-thiadiazol-2-yl)-2-[1-(4,4,4-trifluorobutyl)-1H-pyrazolo[3,4-b]pyridin-3-yl]-5,7-dihydro-6H-pyrrolo[2,3-d]pyrimidin-6-one] | B (Category B=SBP in SHRs 25-40 mmHg)
CC1(C(=O)NC2CC2)C(=O)Nc2nc(-c3nn(CCC(F)F)c4ncccc34)nc(N)c21 (centres unmarked) [Example 238, 4-amino-N-cyclopropyl-2-[1-(3,3-difluoropropyl)-1H-pyrazolo[3,4-b]pyridin-3-yl]-5-methyl-6-oxo-6,7-dihydro-5H-pyrrolo[2,3-d]pyrimidine-5-carboxamide] | B (Category B=SBP in SHRs 25-40 mmHg)
Cc1ccc2c(-c3nc(N)c4c(n3)NC(=O)C4(C)C(=O)NC3CCOCC3)nn(CCC(F)(F)C(F)(F)F)c2n1 (centres unmarked) [Example 239, 4-amino-5-methyl-2-[6-methyl-1-(3,3,4,4,4-pentafluorobutyl)-1H-pyrazolo[3,4-b]pyridin-3-yl]-6-oxo-N-(tetrahydro-2H-pyran-4-yl)-6,7-dihydro-5H-pyrrolo[2,3-d]pyrimidine-5-carboxamide] | A (Category A=SBP in SHRs<25 mmHg)
Nc1nc(-c2nn(CCC(F)(F)C(F)(F)F)c3ncccc23)nc2c1C(C(=O)NC1CC1)(C1CC1)C(=O)N2 (centres unmarked) [Example 242, 4-amino-N,5-dicyclopropyl-6-oxo-2-[1-(3,3,4,4,4-pentafluorobutyl)-1H-pyrazolo(3,4-b]pyridin-3-yl]-6,7-dihydro-5H-pyrrolo[2,3-d]pyrimidine-5-carboxamide] | B (Category B=SBP in SHRs 25-40 mmHg)
CC(C)C1(C(N)=O)C(=O)Nc2nc(-c3nn(CCC(F)(F)C(F)(F)F)c4ncccc34)nc(N)c21 (centres unmarked) [Example 244, 4-amino-5-(1-methylethyl)-6-oxo-2-(1-(3,3,4,4,4-pentafluorobutyl)-1H-pyrazolo[3,4-b]pyridin-3-yl]-6,7-dihydro-5H-pyrrolo[2,3-d]pyrimidine-5-carboxamide] | C (Category C=SBP in SHRs>40 mmHg)
Nc1nc(-c2nn(CCC(F)(F)F)c3ncccc23)nc2c1C(C(=O)NC1CC1)(C1CC1)C(=O)N2 (centres unmarked) [Example 245, 4-amino-N,5-dicyclopropyl-6-oxo-2-[1-(3,3,3-trifluoropropyl)-1H-pyrazolo[3,4-b]pyridin-3-yl]-6,7-dihydro-5H-pyrrolo[2,3-d]pyrimidine-5-carboxamide] | C (Category C=SBP in SHRs>40 mmHg)

Same assay, conditions: single oral dose 1 mpk P.O.

Compound | Maximum peak decrease of systolic blood pressure (SBP) in SHR, Category
CC1(C(=O)NC2CC2)C(=O)Nc2nc(-c3nn(CCC(F)(F)F)c4nc(C5CC5)ccc34)nc(N)c21 (centres unmarked) [Example 224, 4-amino-N-cyclopropyl-2-[6-cyclopropyl-1-(3,3,3-trifluoropropyl)-1H-pyrazolo[3,4-b]pyridin-3-yl]-5-methyl-6-oxo-6,7-dihydro-5H-pyrrolo[2,3-d]pyrimidine-5-carboxamide] | B (Category B=SBP in SHRs 25-40 mmHg)
Cn1cc(C2(C)C(=O)Nc3nc(-c4nn(CCC(F)(F)C(F)(F)F)c5cc(Cl)ccc45)nc(N)c32)cn1 (centres unmarked) [Example 229, 4-amino-2-[6-chloro-1-(3,3,4,4,4-pentafluorobutyl)-1H-indazol-3-yl]-5-methyl-5-(1-methyl-1H-pyrazol-4-yl)-5,7-dihydro-6H-pyrrolo[2,3-d]pyrimidin-6-one] | C (Category C=SBP in SHRs>40 mmHg)
CCC1(C(N)=O)C(=O)Nc2nc(-c3nn(CCC(F)(F)C(F)(F)F)c4ncccc34)nc(N)c21 (centres unmarked) [Example 241, 4-amino-5-ethyl-6-oxo-2-[1-(3,3,4,4,4-pentafluorobutyl)-1H-pyrazolo[3,4-b]pyridin-3-yl]-6,7-dihydro-5H-pyrrolo[2,3-d]pyrimidine-5-carboxamide] | B (Category B=SBP in SHRs 25-40 mmHg)
Nc1nc(-c2nn(CCC(F)(F)C(F)(F)F)c3ncccc23)nc2c1C(C(=O)NC1CC1)(C1CCCC1)C(=O)N2 (centres unmarked) [Example 243, 4-amino-5-cyclopentyl-N-cyclopropyl-6-oxo-2-[1-(3,3,4,4,4-pentafluorobutyl)-1H-pyrazolo[3,4-b]pyridin-3-yl]-6,7-dihydro-5H-pyrrolo[2,3-d]pyrimidine-5-carboxamide] | B (Category B=SBP in SHRs 25-40 mmHg)
